Test results published in patent EP4678638A1, “NEW E3 UBIQUITIN LIGASE LIGAND, PROTEIN DEGRADATION AGENT AND USE THEREOF” (priority 2023, dated 2024).
pIC50: −log10 of the molar value.

Key:
IKZF2 = molecular target: T1, IKZF2 (Homo sapiens, UniProt Q96SW2+Q9UKS7); assay: Western blot degradation of IKZF2 (hPBMC); assay type: cell-based; conditions: Table D16
T1 construct: evaluate the effects of the compounds of the present disclosure on the expression of target proteins in cells; endogenous in cells; host or cells: hPBMC
Procedure: (§1) Conventional Western blot assay was performed to evaluate the effects of the compounds of the present disclosure on the expression of target proteins in cells.
(§2) (1) Cell Seeding and Protein Harvesting: The selected cells were processed according to the cell seeding procedure and protein harvesting procedure in Table III-2. Table III-2 Cell Seeding and Protein Harvesting Procedures
(§3) (2) To the collected supernatant, 5X SDS sample loading buffer was added, followed by denaturation at 95°C for 5 minutes. The denatured samples were then separated by SDS-PAGE electrophoresis on a polyacrylamide gel. Proteins were transferred to a nitrocellulose membrane (0.45 µm NC membrane), blocked with blocking buffer at room temperature for 1 hour, and subjected to antibody incubation and development procedures according to the antibody manufacturer's instructions (Cell Signaling Technology).
(§4) Half-Maximal Degradation Concentration value (the drug concentration required for degrading proteins by 50%, abbreviated as DC50) reads method: comparing the grayscale values of Western blot bands from drug-treated samples with those from blank DMSO-treated controls, and identifying the drug concentration range at which the grayscale value is half that of the DMSO-treated control bands.
(§5) DC50 values can be calculated using ImageJ software to measure grayscale values of Western blot bands from drug-treated samples. The concentration-response curve is fitted to estimate the drug concentration corresponding to half the grayscale value.
(§6) Target protein remaining (%) refers to the percentage of target protein remaining in hPBMC cells after treatment with protein degrader compounds.
(§7) Calculation method for target protein remaining (%): Use ImageJ software to measure grayscale values of Western blot bands from drug (protein degrader)-treated samples. The grayscale value of drug-treated bands is divided by that of internal control protein bands, and the resulting quotient is normalized to obtain the relative percentage of remaining target protein after protein degrader treatment.
(§8) Target protein degradation rate (%) = 100% - target protein remaining (%).

WEE1 = molecular target: T2, WEE1 (Homo sapiens, UniProt P30291+Q96SW2); assay: Western blot degradation of WEE1 (hPBMC); assay type: cell-based; conditions: Table D16
T2 construct: evaluate the effects of the compounds of the present disclosure on the expression of target proteins in cells; endogenous in cells; host or cells: hPBMC
Procedure: as §1, §2, §3, §4, §5, §6, §7, §8

CK1a = molecular target: T3, CK1a (Homo sapiens, UniProt P48729+Q96SW2); assay: Western blot degradation of CK1a (hPBMC); assay type: cell-based; conditions: Table D16
T3 construct: evaluate the effects of the compounds of the present disclosure on the expression of target proteins in cells; endogenous in cells; host or cells: hPBMC
Procedure: as §1, §2, §3, §4, §5, §6, §7, §8

IKZF1 = molecular target: T4, IKZF1 (Homo sapiens, UniProt Q13422+Q96SW2); assay: Western blot degradation of IKZF1 (hPBMC); assay type: cell-based; conditions: Table D16
T4 construct: evaluate the effects of the compounds of the present disclosure on the expression of target proteins in cells; endogenous in cells; host or cells: hPBMC
Procedure: as §1, §2, §3, §4, §5, §6, §7, §8

GSPT1 = molecular target: T5, GSPT1 (Homo sapiens, UniProt P15170+Q96SW2); assay: Western blot degradation of GSPT1 (hPBMC); assay type: cell-based; conditions: Table D16
T5 construct: evaluate the effects of the compounds of the present disclosure on the expression of target proteins in cells; endogenous in cells; host or cells: hPBMC
Procedure: as §1, §2, §3, §4, §5, §6, §7, §8

IKZF3 = molecular target: T6, IKZF3 (Homo sapiens, UniProt Q96SW2+Q9UKT9); assay: Western blot degradation of IKZF3 (hPBMC); assay type: cell-based; conditions: Table D16
T6 construct: evaluate the effects of the compounds of the present disclosure on the expression of target proteins in cells; endogenous in cells; host or cells: hPBMC
Procedure: as §1, §2, §3, §4, §5, §6, §7, §8

MCF7 = assay: CCK-8 proliferation, MCF7 (MCF-7); assay type: cell-based; conditions: Homo sapiens, MCF7; CCK-8; read-out: Inhibitory activity (IC50) on tumor cell proliferation, MCF-7
How it was run: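 Cells seeded, then after 24 h treated with 10 concentrations (top 10 µM, 5-fold serial dilution) for a line-specific time at 37°C, 5% CO2. Viability read by CCK-8; IC50 fitted from growth-inhibition curves.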

[1] = molecular target: T7, human Cereblon WT GST-tagged protein (Homo sapiens, UniProt Q96SW2); assay: CRBN binding, HTRF (CEREBLON BINDING kit); conditions: Table II-2, CRBN binding screening, HTRF
T7 construct: purchased CISBIO 64BDCRBNPEH
How it was run: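 Competitive HTRF: GST-tagged human WT Cereblon mixed with compound, Thalidomide-Re tracer and GST Eu antibody, incubated 3 h at room temperature. Signals read at 620 and 665 nm.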

T2 sequence (P30291 whole entry): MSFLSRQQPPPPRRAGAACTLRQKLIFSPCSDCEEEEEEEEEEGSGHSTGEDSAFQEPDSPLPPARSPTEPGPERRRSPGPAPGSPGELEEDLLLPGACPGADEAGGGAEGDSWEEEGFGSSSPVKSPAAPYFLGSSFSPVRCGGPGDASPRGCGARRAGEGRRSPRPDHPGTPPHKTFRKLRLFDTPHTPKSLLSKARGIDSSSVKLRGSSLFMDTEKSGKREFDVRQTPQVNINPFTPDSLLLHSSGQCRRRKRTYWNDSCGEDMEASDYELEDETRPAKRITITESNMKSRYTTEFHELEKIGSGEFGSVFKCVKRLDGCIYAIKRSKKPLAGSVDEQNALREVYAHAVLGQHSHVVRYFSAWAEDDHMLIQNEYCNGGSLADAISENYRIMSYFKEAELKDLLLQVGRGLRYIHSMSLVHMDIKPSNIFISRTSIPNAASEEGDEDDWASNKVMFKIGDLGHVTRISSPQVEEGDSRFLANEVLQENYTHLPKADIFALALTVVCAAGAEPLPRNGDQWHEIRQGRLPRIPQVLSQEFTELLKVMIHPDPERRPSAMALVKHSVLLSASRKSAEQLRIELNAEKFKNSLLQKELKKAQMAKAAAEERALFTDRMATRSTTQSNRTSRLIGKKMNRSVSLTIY
T2 sequence (Q96SW2 whole entry): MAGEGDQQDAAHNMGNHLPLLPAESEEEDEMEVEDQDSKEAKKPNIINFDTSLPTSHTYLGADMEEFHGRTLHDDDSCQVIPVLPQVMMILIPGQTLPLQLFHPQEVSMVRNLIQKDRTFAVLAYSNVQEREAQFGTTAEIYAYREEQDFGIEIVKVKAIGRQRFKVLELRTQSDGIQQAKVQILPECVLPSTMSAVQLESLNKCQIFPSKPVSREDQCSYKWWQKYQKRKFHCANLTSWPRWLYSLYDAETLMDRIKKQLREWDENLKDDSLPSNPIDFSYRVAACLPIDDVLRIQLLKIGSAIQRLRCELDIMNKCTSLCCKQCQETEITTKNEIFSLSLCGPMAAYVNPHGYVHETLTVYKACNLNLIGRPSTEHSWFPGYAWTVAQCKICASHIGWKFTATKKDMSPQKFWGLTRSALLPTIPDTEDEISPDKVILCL
T2 sequence (Q16531 whole entry partner): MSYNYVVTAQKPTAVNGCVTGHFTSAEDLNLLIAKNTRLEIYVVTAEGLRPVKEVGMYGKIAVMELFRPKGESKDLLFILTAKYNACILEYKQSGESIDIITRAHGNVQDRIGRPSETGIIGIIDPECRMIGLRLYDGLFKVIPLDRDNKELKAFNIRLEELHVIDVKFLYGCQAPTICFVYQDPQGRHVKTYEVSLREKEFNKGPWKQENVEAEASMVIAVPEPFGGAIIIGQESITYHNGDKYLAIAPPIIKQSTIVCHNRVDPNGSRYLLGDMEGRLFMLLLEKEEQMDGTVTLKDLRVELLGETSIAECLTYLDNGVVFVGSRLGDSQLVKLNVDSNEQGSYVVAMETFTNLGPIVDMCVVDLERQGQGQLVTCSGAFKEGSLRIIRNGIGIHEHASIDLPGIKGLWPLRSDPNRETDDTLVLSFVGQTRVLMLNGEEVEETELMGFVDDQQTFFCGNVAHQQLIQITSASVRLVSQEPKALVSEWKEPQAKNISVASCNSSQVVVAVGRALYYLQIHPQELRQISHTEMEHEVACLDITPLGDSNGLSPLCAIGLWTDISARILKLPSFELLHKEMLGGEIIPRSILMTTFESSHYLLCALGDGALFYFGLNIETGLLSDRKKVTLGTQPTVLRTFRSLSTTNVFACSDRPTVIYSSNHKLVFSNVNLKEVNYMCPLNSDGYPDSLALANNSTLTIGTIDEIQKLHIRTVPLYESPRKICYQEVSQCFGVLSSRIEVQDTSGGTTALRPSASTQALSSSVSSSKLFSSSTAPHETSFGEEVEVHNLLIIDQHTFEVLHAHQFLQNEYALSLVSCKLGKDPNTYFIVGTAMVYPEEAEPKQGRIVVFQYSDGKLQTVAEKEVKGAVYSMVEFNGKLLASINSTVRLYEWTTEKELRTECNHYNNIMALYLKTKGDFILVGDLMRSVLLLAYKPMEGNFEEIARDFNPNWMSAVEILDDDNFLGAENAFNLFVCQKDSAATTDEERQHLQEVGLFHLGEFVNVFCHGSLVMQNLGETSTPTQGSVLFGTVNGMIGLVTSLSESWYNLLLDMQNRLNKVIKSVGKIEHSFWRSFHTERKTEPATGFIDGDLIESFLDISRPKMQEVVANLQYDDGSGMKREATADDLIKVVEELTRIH
T1 sequence (Q9UKS7 whole entry): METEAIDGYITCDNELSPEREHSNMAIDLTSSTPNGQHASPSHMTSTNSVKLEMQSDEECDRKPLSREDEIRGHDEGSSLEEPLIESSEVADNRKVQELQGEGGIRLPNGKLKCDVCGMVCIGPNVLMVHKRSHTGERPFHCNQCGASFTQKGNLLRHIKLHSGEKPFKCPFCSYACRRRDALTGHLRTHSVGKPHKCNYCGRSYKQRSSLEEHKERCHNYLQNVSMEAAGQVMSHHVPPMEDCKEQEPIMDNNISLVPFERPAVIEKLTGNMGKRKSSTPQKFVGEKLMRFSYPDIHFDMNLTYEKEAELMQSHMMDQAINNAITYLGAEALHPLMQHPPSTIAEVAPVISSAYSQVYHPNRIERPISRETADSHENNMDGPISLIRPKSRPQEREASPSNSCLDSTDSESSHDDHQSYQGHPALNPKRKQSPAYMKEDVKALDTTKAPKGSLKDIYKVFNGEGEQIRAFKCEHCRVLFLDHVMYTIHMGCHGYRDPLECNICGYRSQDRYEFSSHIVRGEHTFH
T1 sequence (Q96SW2 whole entry): as the sequence (Q96SW2 whole entry) above
T1 sequence (Q16531 whole entry partner): as the sequence (Q16531 whole entry partner) above
T6 sequence (Q9UKT9 whole entry): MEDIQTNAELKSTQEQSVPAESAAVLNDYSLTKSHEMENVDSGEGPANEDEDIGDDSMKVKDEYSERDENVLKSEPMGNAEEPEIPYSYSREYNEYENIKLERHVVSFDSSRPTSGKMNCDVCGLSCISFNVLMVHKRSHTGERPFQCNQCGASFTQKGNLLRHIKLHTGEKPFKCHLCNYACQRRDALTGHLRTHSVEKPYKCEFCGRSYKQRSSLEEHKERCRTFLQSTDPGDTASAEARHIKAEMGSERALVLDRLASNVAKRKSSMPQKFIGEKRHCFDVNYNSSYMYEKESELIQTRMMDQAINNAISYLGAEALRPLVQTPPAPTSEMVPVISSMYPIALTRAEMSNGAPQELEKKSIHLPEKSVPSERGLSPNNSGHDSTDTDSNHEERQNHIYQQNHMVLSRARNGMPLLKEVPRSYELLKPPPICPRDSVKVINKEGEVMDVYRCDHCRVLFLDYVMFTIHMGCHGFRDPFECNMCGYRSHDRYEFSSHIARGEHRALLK
T6 sequence (Q96SW2 whole entry): as the sequence (Q96SW2 whole entry) above
T6 sequence (Q16531 whole entry partner): as the sequence (Q16531 whole entry partner) above
T3 sequence (P48729 whole entry): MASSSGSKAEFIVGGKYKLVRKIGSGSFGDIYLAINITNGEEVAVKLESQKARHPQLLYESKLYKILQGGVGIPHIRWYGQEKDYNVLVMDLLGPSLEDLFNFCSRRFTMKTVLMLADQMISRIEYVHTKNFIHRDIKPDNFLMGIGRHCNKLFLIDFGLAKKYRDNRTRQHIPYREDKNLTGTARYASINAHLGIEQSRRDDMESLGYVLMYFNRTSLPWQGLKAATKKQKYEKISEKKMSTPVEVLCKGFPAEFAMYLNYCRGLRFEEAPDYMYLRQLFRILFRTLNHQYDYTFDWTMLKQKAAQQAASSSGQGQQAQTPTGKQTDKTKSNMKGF
T3 sequence (Q96SW2 whole entry): as the sequence (Q96SW2 whole entry) above
T3 sequence (Q16531 whole entry partner): as the sequence (Q16531 whole entry partner) above
T5 sequence (P15170 whole entry): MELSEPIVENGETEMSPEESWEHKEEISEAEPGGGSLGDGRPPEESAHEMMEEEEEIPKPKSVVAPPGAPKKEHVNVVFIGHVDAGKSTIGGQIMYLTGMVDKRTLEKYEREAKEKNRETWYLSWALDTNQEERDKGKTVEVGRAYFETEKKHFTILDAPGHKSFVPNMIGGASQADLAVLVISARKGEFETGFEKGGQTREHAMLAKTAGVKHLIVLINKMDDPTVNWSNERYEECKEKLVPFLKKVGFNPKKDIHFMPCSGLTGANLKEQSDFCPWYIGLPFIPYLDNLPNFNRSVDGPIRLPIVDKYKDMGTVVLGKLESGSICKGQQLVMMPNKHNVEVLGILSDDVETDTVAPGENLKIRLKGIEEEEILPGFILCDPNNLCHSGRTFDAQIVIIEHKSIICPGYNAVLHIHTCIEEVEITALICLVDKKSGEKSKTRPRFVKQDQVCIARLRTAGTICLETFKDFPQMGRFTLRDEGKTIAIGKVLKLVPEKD
T5 sequence (Q96SW2 whole entry): as the sequence (Q96SW2 whole entry) above
T5 sequence (Q16531 whole entry partner): as the sequence (Q16531 whole entry partner) above
T7 sequence (Q96SW2 whole entry): as the sequence (Q96SW2 whole entry) above

Compound	Degradation of substrate protein IKZF2 (substrate protein remaining %) (IKZF2)	Degradation of substrate protein WEE1 (substrate protein remaining %) (WEE1)	Degradation of substrate protein CKla (substrate protein remaining %) (CK1a)	Degradation of substrate protein IKZF1 (substrate protein remaining %) (IKZF1)	Degradation of substrate protein GSPT1 (substrate protein remaining %) (GSPT1)	Degradation of substrate protein IKZF3 (substrate protein remaining %) (IKZF3)	pIC50 (MCF7)	inhibition at 0.5 µM ([1]; at 0.5µM, read-out: Inhibition rate (%) at 0.5µM)	inhibition at 2 µM ([1]; at 2 µM, read-out: Inhibition rate (%) at 2 µM)
O=C1CCC(c2cnc(CO)c(F)c2)C(=O)N1 (stereo not shown) [GT-07049, 3-(5-Fluoro-6-(hydroxymethyl)pyridin-3-yl)piperidine-2,6-dione]	A (A is defined as 0% ≤ substrate protein remaining % ≤ 80%)	B (B is defined as substrate protein remaining % > 80%)	A (A is defined as 0% ≤ substrate protein remaining % ≤ 80%)	B (B is defined as substrate protein remaining % > 80%)	A (A is defined as 0% ≤ substrate protein remaining % ≤ 80%)	A (A is defined as 0% ≤ substrate protein remaining % ≤ 80%)	5.30 to 6.00		
NCc1cncc(N2CCC(=O)NC2=O)c1 [GT-07077, 1-(5-(Aminomethyl)pyridin-3-yl)dihydropyrimidine-2,4(1H,3H)-dione]	B (B is defined as substrate protein remaining % > 80%)	B (B is defined as substrate protein remaining % > 80%)	B (B is defined as substrate protein remaining % > 80%)	B (B is defined as substrate protein remaining % > 80%)	A (A is defined as 0% ≤ substrate protein remaining % ≤ 80%)	B (B is defined as substrate protein remaining % > 80%)	5.30 to 6.00		
O=C1CCC(c2ccc(CO)cn2)C(=O)N1 (stereo not shown) [GT-07075, 3-(5-(Hydroxymethyl)pyridin-2-yl)piperidine-2,6-dione]	A (A is defined as 0% ≤ substrate protein remaining % ≤ 80%)	B (B is defined as substrate protein remaining % > 80%)	B (B is defined as substrate protein remaining % > 80%)	B (B is defined as substrate protein remaining % > 80%)	A (A is defined as 0% ≤ substrate protein remaining % ≤ 80%)	A (A is defined as 0% ≤ substrate protein remaining % ≤ 80%)			
O=C1CCC(c2cnc(F)c(CO)c2)C(=O)N1 (stereo not shown) [GT-07074, 3-(6-Fluoro-5-(hydroxymethyl)pyridin-3-yl)piperidine-2,6-dione]	A (A is defined as 0% ≤ substrate protein remaining % ≤ 80%)	B (B is defined as substrate protein remaining % > 80%)	B (B is defined as substrate protein remaining % > 80%)	B (B is defined as substrate protein remaining % > 80%)	A (A is defined as 0% ≤ substrate protein remaining % ≤ 80%)	A (A is defined as 0% ≤ substrate protein remaining % ≤ 80%)			
O=C1CCC(c2cncc(CCl)c2)C(=O)N1 (stereo not shown) [GT-06991, 3-(5-(Chloromethyl)pyridin-3-yl)piperidine-2,6-dione]	A (A is defined as 0% ≤ substrate protein remaining % ≤ 80%)	B (B is defined as substrate protein remaining % > 80%)	B (B is defined as substrate protein remaining % > 80%)	B (B is defined as substrate protein remaining % > 80%)	B (B is defined as substrate protein remaining % > 80%)	B (B is defined as substrate protein remaining % > 80%)		30 to 40%	53 to 60%
O=C1CCN(c2ccc(CCl)cn2)C(=O)N1 [GT-07009, 1-(5-(Chloromethyl)pyridin-2-yl)dihydropyrimidine-2,4(1H,3H)-dione]	B (B is defined as substrate protein remaining % > 80%)	B (B is defined as substrate protein remaining % > 80%)	A (A is defined as 0% ≤ substrate protein remaining % ≤ 80%)	B (B is defined as substrate protein remaining % > 80%)	B (B is defined as substrate protein remaining % > 80%)	B (B is defined as substrate protein remaining % > 80%)			
O=C1CCC(c2cc(CO)c(F)cn2)C(=O)N1 (stereo not shown) [GT-07444, 3-(5-Fluoro-4-(hydroxymethyl)pyridin-2-yl)piperidine-2,6-dione]	A (A is defined as 0% ≤ substrate protein remaining % ≤ 80%)	B (B is defined as substrate protein remaining % > 80%)	B (B is defined as substrate protein remaining % > 80%)	B (B is defined as substrate protein remaining % > 80%)	B (B is defined as substrate protein remaining % > 80%)	A (A is defined as 0% ≤ substrate protein remaining % ≤ 80%)			
CC(C)(C)[Si](C)(C)OCc1cncc(NC2CCC(=O)NC2=O)c1 (stereo not shown) [GT-07449, 3-((5-(((tert-Butyldimethylsilyl)oxy)methyl)pyridin-3-yl)amino)piperidine-2,6-dione]	A (A is defined as 0% ≤ substrate protein remaining % ≤ 80%)	B (B is defined as substrate protein remaining % > 80%)	B (B is defined as substrate protein remaining % > 80%)	B (B is defined as substrate protein remaining % > 80%)	B (B is defined as substrate protein remaining % > 80%)	B (B is defined as substrate protein remaining % > 80%)			
O=C1CCN(c2cnc(F)c(CO)c2)C(=O)N1 [GT-07556, 1-(6-Fluoro-5-(hydroxymethyl)pyridin-3-yl)dihydropyrimidine-2,4(1H,3H)-dione]	B (B is defined as substrate protein remaining % > 80%)	A (A is defined as 0% ≤ substrate protein remaining % ≤ 80%)	A (A is defined as 0% ≤ substrate protein remaining % ≤ 80%)	A (A is defined as 0% ≤ substrate protein remaining % ≤ 80%)	B (B is defined as substrate protein remaining % > 80%)	A (A is defined as 0% ≤ substrate protein remaining % ≤ 80%)			
O=C1CCC(Nc2cnccc2CO)C(=O)N1 (stereo not shown) [GT-07559, 3-((4-(Hydroxymethyl)pyridin-3-yl)amino)piperidine-2,6-dione]	A (A is defined as 0% ≤ substrate protein remaining % ≤ 80%)	A (A is defined as 0% ≤ substrate protein remaining % ≤ 80%)	A (A is defined as 0% ≤ substrate protein remaining % ≤ 80%)	A (A is defined as 0% ≤ substrate protein remaining % ≤ 80%)	A (A is defined as 0% ≤ substrate protein remaining % ≤ 80%)	A (A is defined as 0% ≤ substrate protein remaining % ≤ 80%)			
